Consider 18 compounds from paper PMC7766225, “Structure-Based Discovery and Bioactivity Evaluation of Novel Aurora-A Kinase Inhibitors as Anticancer Agents via Docking-Based Comparative Intermolecular Contacts Analysis (dbCICA)” (Molecules, 2020).

Several values for one entry are separate records, joined by “and”; a condition that tells them apart may be missing. Equal values may be shown once. Read-outs that look alike come from different tables or passages of the source.

Test [1] deals with T1, Aurora-A kinase (Homo sapiens, UniProt O14965).
T1 construct: purchased Invitrogen (Carlsbad, CA, USA)
T1 sequence (O14965 1-403): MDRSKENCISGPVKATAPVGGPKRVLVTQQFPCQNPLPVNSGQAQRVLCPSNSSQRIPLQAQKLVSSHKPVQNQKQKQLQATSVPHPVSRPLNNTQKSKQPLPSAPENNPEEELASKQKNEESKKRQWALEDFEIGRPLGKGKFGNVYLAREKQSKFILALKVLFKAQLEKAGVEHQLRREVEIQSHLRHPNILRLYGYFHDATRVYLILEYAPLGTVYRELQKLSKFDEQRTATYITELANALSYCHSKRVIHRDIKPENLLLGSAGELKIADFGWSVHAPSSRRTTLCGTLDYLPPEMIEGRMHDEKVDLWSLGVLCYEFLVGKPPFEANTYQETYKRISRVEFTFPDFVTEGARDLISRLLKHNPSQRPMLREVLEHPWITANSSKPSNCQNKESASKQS
The following applies: Table S1, ChEMBL, et al., cited from earlier work.

The subject of another test is T-47D cells. As to the kind of experiment: MTT cytotoxicity/anti-proliferation assay, T-47D. Particulars: Homo sapiens, T47D, 72 h. It is filed as cell-based. On the procedure:
(§1) The human cell-lines triple negative breast adenocarcinoma MDA-MB-231, Pancreas adenocarcinoma PANC1, ductal breast carcinoma T-47D and fibroblasts were preserved and expanded in DMEM medium, while the prostate adenocarcinoma PC-3 cells were cultured in RPMI-1640 growth medium. All growth media were supplemented with 10% heat-inactivated fetal bovine serum (FBS). Cells were maintained under standard culture conditions at 37 °C, 5% CO2 in a humidified incubator. At 80% confluency, cells were washed with 5 mL phosphate buffer saline (1X PBS), then incubated for 4 min with 2–3 mL Trypsin-EDTA 0.25% in order to obtain suspended cells and collect them in a known volume of fresh media for cell count. Cells were counted using conventional hemocytometer and trypan blue dye method.
(§2) The five potent hits that have shown anti-Aurora-A Kinase inhibition percentages above 51% at 10 μM upon conducting the kinase enzyme Inhibition assay (Table 5) were further validated using MTT cytotoxicity Assay. This assay includes 3-(4,5-Dimethylthiazol-2-yl)-2,5-diphenyl tetrazolium bromide (MTT) dye, which is a yellowish tetrazole reduced by viable cells into formazan purple color, which detects the normal mitochondrial role in viable cells. In 96-well coated flat bottom microplates, 100 μL cell suspension of PANC1 or T-47D cells were seeded at a density of 7000 cell/well, and 6000 cell/well for MDA-MB-231, PC-3, or fibroblasts, and incubated under the same conditions at 37 °C. After 24 h, each well was treated with the intended drug concentration diluted in 200 μL fresh media after removal of the old 100-μL media. After 72 h incubation, drug-containing media was aspirated and on each well 100 μL phenol-red free media and 15-μL MTT solution (5 mg/mL (wt/vol) PBS). After 3 h of dark incubation at 37 °C, MTT and media were carefully withdrawn from each well, and 200 μL/well DMSO were added. Colorimetric absorbance (OD) was measured at 570 nm wavelength using 96-well plate reader (Tecan-Sunrise, Männedorf, Switzerland).
(§3) The five compounds were prepared in a stock concentrate of 10 mM using cell culture grade DMSO to be utilized in MTT assay. The cytotoxicity of each compound was initially screened on cancer cell-lines at two concentrations: 50 μM and 25 μM in duplicates. […] The safety index for the compounds with specified IC50 values was evaluated via determining their IC50 values against normal Fibroblast cells. It is noteworthy to mention that DMSO concentration was constant on all the wells (i.e., (0.5% v/v or 1 μL/200 μL) per well), for the treated and the control ones. IC50 values were calculated using nonlinear regression of the dose–response curves using GraphPad Prism software 7.03.

The next test has as its system PANC1 cells. As to the kind of experiment: MTT cytotoxicity/anti-proliferation assay, PANC1. Particulars: Homo sapiens; for IC50: PANC-1, 72 h, Panc1, 72 h; for inhibition at 25 µM / inhibition at 50 µM: PANC-1, 72 h; for inhibition at 25 µM: Panc1, 25 µM; for inhibition at 50 µM: Panc1, 50 µM. It is filed as cell-based, human. On the procedure:
as §1, §2, §3

In another test the test system is MDA-MB-231 cells. As to the kind of experiment: MTT cytotoxicity/anti-proliferation assay, MDA-MB-231. It is filed as cell-based, human. Particulars: Homo sapiens; for IC50: MDA-MB-231, 72 h; for inhibition at 25 µM: MDA-MB-231, 25 µM; for inhibition at 25 µM / inhibition at 50 µM: 72 h; for inhibition at 50 µM: MDA-MB-231, 50 µM. As to the method: as §1, §2, §3

For test [2], the target named is T1, Aurora-A kinase. As to the kind of experiment: FRET-based Z'-LYTE kinase enzyme inhibition assay. It is filed as biochemical. Particulars: for inhibition at 10 µM: read-out: % Inhibition at 10 µM; for IC50: nonlinear regression; for Hill Slope: dose-response curve, GraphPad Prism.
Experimental: This bioassay was conducted using Z′-LYTE® kinase assay (Invitrogen, Carlsbad, CA, USA) [68, 69]. This biochemical assay depends on fluorescence emission as detection method utilizing a synthetic fluorescence resonance energy transfer (FRET) peptide with two fluorophores: coumarin that work as donor and fluorescein as acceptor [69]. Each hit or compound was dissolved in DMSO to form 10 mM stock solution. Hits were screened at 10 μM concentration. The bioassay was performed in black 384-well plate. For each assay, 100 nL of tested compound stock solution (10 mM) was mixed with 2.4 μL kinase buffer, 5 μL (peptide substrate/Aurora-A Kinase) mixture, and 2.5 μL ATP solution.
The tests were conducted in duplicates.
The test system of a further test is PC-3 cells. As to the kind of experiment: MTT cytotoxicity/anti-proliferation assay, PC-3. The following applies: Homo sapiens. It is filed as cell-based. On the procedure:
as §1, §2, §3

In the next test the test system is Fibroblasts. As to the kind of experiment: MTT cytotoxicity assay on normal fibroblasts (safety index). It is filed as cell-based. The following applies: Homo sapiens, Fibroblast, 72 h. On the procedure:
as §1, §2, §3
(In general: Formazan colour is commonly taken as a measure of viable cells.)

Broadly, the Ki is a measure of affinity in units of concentration, obtained from inhibition or displacement. For the compound `CCC(=O)Nc1ccc(Sc2nc(Nc3cc(C)[nH]n3)cc(C(C)(C)C)n2)cc1` [Compound 54], at Aurora-A kinase [1] (ref Bebbington, 2009), the Ki was 0.01 µM.
Take `CCC(=O)Nc1ccc(Sc2nc(Nc3cc(C)[nH]n3)cc(-c3cccnc3)n2)cc1` [Compound 55]: the Ki on Aurora-A kinase [1] (ref Bebbington, 2009) was 0.0039 µM.
As for `CCC(=O)Nc1ccc(Sc2nc(Nc3cc(C)[nH]n3)cc(N3CCC3)n2)cc1` [Compound 56], on Aurora-A kinase [1] (ref Bebbington, 2009), the Ki was 0.0024 µM.
`CCC(=O)Nc1ccc(Sc2nc(Nc3cc(C)[nH]n3)cc(N3CCCCC3)n2)cc1` [Compound 57]: the Ki at Aurora-A kinase [1] (ref Bebbington, 2009) was 0.0016 µM.
In the case of `CCC(=O)Nc1ccc(Sc2nc(Nc3cc(C)[nH]n3)cc(N3CCOCC3)n2)cc1` [Compound 58], on Aurora-A kinase [1] (ref Bebbington, 2009), the Ki was 0.0017 µM.
Turning to `CCC(=O)Nc1ccc(Sc2nc(Nc3cc(C)[nH]n3)cc(N3CCNCC3)n2)cc1` [Compound 59], the Ki at Aurora-A kinase [1] (ref Bebbington, 2009) is 0.0037 µM.
For the compound `CCC(=O)Nc1ccc(Sc2nc(Nc3cc(C)[nH]n3)cc(N3CCN(C)CC3)n2)cc1` [Compound 60], the Ki on Aurora-A kinase [1] (ref Bebbington, 2009) is 0.0016 µM.
Consider `CCC(=O)Nc1ccc(Sc2nc(Nc3cc(C)[nH]n3)cc(N3CCN(C(C)(C)C)CC3)n2)cc1` [Compound 61], for which the Ki at Aurora-A kinase [1] (ref Bebbington, 2009) is 0.0013 µM.
`Cc1nc(C)c(-c2ccnc(Nc3ccc(N(C)C)cc3)n2)s1` [Compound 65]: the Ki on Aurora-A kinase [1] (ref Wang, 2010) is 0.0069 µM.
Consider `CNc1ccc(Nc2nccc(-c3sc(C)nc3C)n2)cc1` [Compound 66], for which, on Aurora-A kinase [1] (ref Wang, 2010), the Ki was 0.018 µM.
Regarding `Cc1nc(C)c(-c2ccnc(Nc3ccc(N)cc3)n2)s1` [Compound 67], the Ki on Aurora-A kinase [1] (ref Wang, 2010) is 0.031 µM.
Consider `COc1cc(Nc2nccc(-c3sc(C)nc3C)n2)cc(OC)c1OC` [Compound 68], for which, at Aurora-A kinase [1] (ref Wang, 2010), the Ki was 0.0004 µM.
For the compound `CNc1nc(C)c(-c2ccnc(Nc3cc(OC)c(OC)c(OC)c3)n2)s1` [Compound 69], the Ki on Aurora-A kinase [1] (ref Wang, 2010) is 0.001 µM.
Turning to `CCNc1nc(C)c(-c2ccnc(Nc3cc(OC)c(OC)c(OC)c3)n2)s1` [Compound 70], the Ki at Aurora-A kinase [1] (ref Wang, 2010) was 0.003 µM.
One may read the inhibition as how much of the control response was suppressed. By IC50 is commonly meant the midpoint of a concentration-inhibition curve. With `Cc1cc(O)c(/N=N/c2ccc(C(=O)O)cc2)cc1C` [Hit 88], the results for the inhibition at 25 µM with T-47D cells, with PANC1 cells and in the test on MDA-MB-231 cells were 26.5 ± 0.01%, 11.3 ± 0.01% and 21.1 ± 0.05%, respectively. The inhibition at 50 µM was 34.9 ± 0.013% in the test with T-47D cells, 15.1 ± 0.006% in the test on PANC1 cells and 31.3 ± 0.06% in the test with MDA-MB-231 cells. The IC50 in the test with T-47D cells was over 50 µM; in the test on PANC1 cells, over 50 µM; in the test with MDA-MB-231 cells, over 50 µM; on Aurora-A kinase [2] (0.1–100 μM, duplicates, read-out: IC50), 2.6 µM and 2.61 µM. In addition, the inhibition at 10 µM on Aurora-A kinase [2] (10 µM, duplicates, Z'-LYTE) is 75%. In addition, at Aurora-A kinase [2], the “Hill Slope” value was determined as 1.77.
As to `COc1cc(/C=N/c2ccc3ccccc3c2)ccc1O` [Hit 112], the inhibition at 25 µM with T-47D cells was determined as 34.7 ± 0.012%; with PANC1 cells, 16 ± 0.02%; in the test with MDA-MB-231 cells, 63.3 ± 0.021%; in the test with PC-3 cells (PC-3, 25 µM, 72 h), 19.2%; with Fibroblasts (25 µM), 53.9 ± 0.018%. For the same compound, the inhibition at 50 µM with T-47D cells is 48.11 ± 0.003%; in the test on PANC1 cells it was 22.5 ± 0.012%; in the test with MDA-MB-231 cells, 74.7 ± 0.012%; in the test with PC-3 cells (PC-3, 50 µM, 72 h) it was 32.7%; in the test with Fibroblasts (50 µM) it was 54.3 ± 0.003%. Besides, the IC50 was over 50 µM in the test on T-47D cells; over 50 µM with PANC1 cells; 17.9 ± 1.4 µM with MDA-MB-231 cells; over 50 µM in the test with PC-3 cells (PC-3, 72 h); 15.1 ± 3 µM with Fibroblasts. Moreover, the inhibition at 10 µM at Aurora-A kinase [2] (10 µM, duplicates, Z'-LYTE) came out at 55%.
With `CCCC1N(Cc2ccc(OC)cc2)CCN1Cc1ccc(OC)cc1` [Hit 130], in the test on T-47D cells, the inhibition at 25 µM was found to be 25.5 ± 0.016%, the inhibition at 50 µM worked out at 31.3 ± 0.008% and the IC50 was over 50 µM. In the test with PANC1 cells, the IC50 was over 50 µM, the inhibition at 25 µM came to 20.3 ± 0.012% and the inhibition at 50 µM is 34.9 ± 0.017%. In the test on MDA-MB-231 cells, this compound registered an IC50 of over 50 µM, an inhibition at 25 µM of 22.9 ± 0.02% and an inhibition at 50 µM of 45.5 ± 0.05%. Further, the IC50 on Aurora-A kinase [2] (IC50, 0.1–100 μM, duplicates) was 5.89 µM and 5.9 µM. Moreover, on Aurora-A kinase [2], the “Hill Slope” value was found to be 7.6 and the inhibition at 10 µM came to 86%.
As for `O=C(O)c1ccc(Nc2ccnc3cc(Cl)ccc23)cc1O` [Hit 141], the inhibition at 25 µM was 21.11 ± 0.01% with T-47D cells, 11.4 ± 0.003% in the test on PANC1 cells and 2.9 ± 0.03% with MDA-MB-231 cells. For the same compound, the results for the inhibition at 50 µM in the test with T-47D cells, in the test on PANC1 cells and in the test on MDA-MB-231 cells were 25.04 ± 0.02%, 15.7 ± 0.02% and 11.1 ± 0.05%, respectively. The IC50 in the test on T-47D cells, with PANC1 cells and in the test with MDA-MB-231 cells was over 50 µM throughout. Moreover, the inhibition at 10 µM on Aurora-A kinase [2] (10 µM, duplicates, Z'-LYTE) came out at 51%.
